Results reported in ChEMBL document CHEMBL2074102, “Expression and functional characterization of rat organic anion transporter 3 (rOat3) in the choroid plexus” (Mol Pharmacol, 2002).

T1: Organic anion transporter 3 (Rattus norvegicus, UniProt Q9R1U7)
T1 sequence (Q9R1U7 whole entry): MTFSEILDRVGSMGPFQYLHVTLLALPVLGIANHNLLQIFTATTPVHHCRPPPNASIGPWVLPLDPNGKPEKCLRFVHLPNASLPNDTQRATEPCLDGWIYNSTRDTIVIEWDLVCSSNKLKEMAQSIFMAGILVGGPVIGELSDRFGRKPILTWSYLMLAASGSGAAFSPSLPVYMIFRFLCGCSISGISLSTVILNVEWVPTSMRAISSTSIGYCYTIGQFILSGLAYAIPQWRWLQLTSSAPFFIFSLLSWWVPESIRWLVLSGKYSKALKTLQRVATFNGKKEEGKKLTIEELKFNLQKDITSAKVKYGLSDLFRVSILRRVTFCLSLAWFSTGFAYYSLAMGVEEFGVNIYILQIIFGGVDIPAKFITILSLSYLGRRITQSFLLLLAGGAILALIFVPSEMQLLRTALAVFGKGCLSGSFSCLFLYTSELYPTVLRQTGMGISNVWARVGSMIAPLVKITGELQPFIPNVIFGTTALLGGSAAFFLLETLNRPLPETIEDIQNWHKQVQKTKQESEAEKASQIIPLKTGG

T2: Solute carrier family 22 member 6 (Rattus norvegicus, UniProt O35956)
T2 sequence (O35956 whole entry): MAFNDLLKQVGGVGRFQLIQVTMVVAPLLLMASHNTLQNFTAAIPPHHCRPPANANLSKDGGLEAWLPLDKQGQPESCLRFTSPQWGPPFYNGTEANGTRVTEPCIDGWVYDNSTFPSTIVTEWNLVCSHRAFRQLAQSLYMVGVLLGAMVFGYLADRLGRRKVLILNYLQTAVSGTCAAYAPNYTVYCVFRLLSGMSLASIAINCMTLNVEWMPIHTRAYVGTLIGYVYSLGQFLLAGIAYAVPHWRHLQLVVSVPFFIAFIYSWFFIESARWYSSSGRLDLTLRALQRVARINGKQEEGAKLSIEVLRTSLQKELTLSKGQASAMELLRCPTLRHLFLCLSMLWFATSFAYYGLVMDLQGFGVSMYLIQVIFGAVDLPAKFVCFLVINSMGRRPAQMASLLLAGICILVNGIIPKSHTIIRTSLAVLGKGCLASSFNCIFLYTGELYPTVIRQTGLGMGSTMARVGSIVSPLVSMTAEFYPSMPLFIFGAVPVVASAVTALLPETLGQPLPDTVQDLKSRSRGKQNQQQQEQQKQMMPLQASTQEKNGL


Experiments:
Format in all cases: functional, cell-based
[1] = molecular target: T1, Organic anion transporter 3; assay: TP_TRANSPORTER: inhibition of PCG uptake in Oat3-expressing LLC-PK1 cells
[2] = molecular target: T2, Solute carrier family 22 member 6; assay: TP_TRANSPORTER: inhibition of PAH uptake in Oat1-expressing LLC-PK1 cells
[3] = molecular target: T1, Organic anion transporter 3; assay: TP_TRANSPORTER: inhibition of PCG uptake in OAT3-expressing LLC-PK1 cells
[4] = substrate: CC1(C)S[C@@H]2[C@H](NC(=O)Cc3ccccc3)C(=O)N2[C@H]1C(=O)O; assay: TP_TRANSPORTER: uptake in Oat3-expressing LLC-PK1 cells

Molecule | Ki [1] [µM] | Ki [2] [µM] | Ki [3] [µM] | also measured
Nc1ccc(C(=O)NCC(=O)O)cc1 [AMINOHIPPURIC ACID] | 398 |  |  | 
CN/C(=N/CCSCc1nc[nH]c1C)NC#N [CIMETIDINE] |  | > 1000 | 46.8 | 
C[C@]12CC[C@@H]3c4ccc(O)cc4CC[C@H]3[C@@H]1CC[C@@H]2O[C@@H]1O[C@H](C(=O)O)[C@@H](O)[C@H](O)[C@H]1O [ESTRADIOL 17B GLUCURONIDE] | 35.6 | > 300 |  | 
C[C@]12CC[C@@H]3c4ccc(OS(=O)(=O)O)cc4CC[C@H]3[C@@H]1CCC2=O [ESTRONE SULFURIC ACID] |  |  | 9.1 | 
CCCN(CCC)S(=O)(=O)c1ccc(C(=O)O)cc1 [PROBENECID] | 4.43 |  |  | 
Organic anion transporter 3 (Rattus norvegicus) (protein) MTFSEILDRVGSMGPFQYLHVTLLALPVLGIANHNLLQIFTATTPVHHCRPPPNASIGPWVLPLDPNGKPEKCLRFVHLPNASLPNDTQRATEPCLDGWIYNSTRDTIVIEWDLVCSSNKLKEMAQSIFMAGILVGGPVIGELSDRFGRKPILTWSYLMLAASGSGAAFSPSLPVYMIFRFLCGCSISGISLSTVILNVEWVPTSMRAISSTSIGYCYTIGQFILSGLAYAIPQWRWLQLTSSAPFFIFSLLSWWVPESIRWLVLSGKYSKALKTLQRVATFNGKKEEGKKLTIEELKFNLQKDITSAKVKYGLSDLFRVSILRRVTFCLSLAWFSTGFAYYSLAMGVEEFGVNIYILQIIFGGVDIPAKFITILSLSYLGRRITQSFLLLLAGGAILALIFVPSEMQLLRTALAVFGKGCLSGSFSCLFLYTSELYPTVLRQTGMGISNVWARVGSMIAPLVKITGELQPFIPNVIFGTTALLGGSAAFFLLETLNRPLPETIEDIQNWHKQVQKTKQESEAEKASQIIPLKTGG |  |  |  | Km [4]: 82.6 µM
